One test relates to CV-1. The experiment in a line: Inhibitory effect on Varicella zoster virus in CV-1 cells. Type of test: functional, cell-based, Cercopithecidae. Particulars: Chlorocebus aethiops.
In a further test the test system is MT4. The experiment in a line: Inhibitory effect on human immunodeficiency virus type-1 (HIV-1) in MT-4 cells. It is filed as functional. Conditions: read-out: ID50 (the source's name).

Converted amounts (≈) assume the structure as drawn.

As for `O=c1[nH]c(=O)n(C2O[C@H](CO)[C@H](CF)[C@@H]2F)cc1I` (some centres not stated), in the test on CV-1, the IC50 turned out to be 5.3 µg/mL (≈ 13.7 µM). Regarding `Cc1cn([C@H]2C[C@H](F)[C@@H](CO)O2)c(=O)[nH]c1=O` [ALOVUDINE], the IC50 in the test with MT4 stood at 0.05 µM.

Values taken from ChEMBL document CHEMBL1124907, “Synthesis and antiviral activity of some 3'-C-difluoromethyl and 3'-deoxy-3'-C-fluoromethyl nucleosides” (J Med Chem, 1990).
